Assay results reported in patent US20260250257A1, “ANTIBACTERIAL AND SYNERGISTIC ACTIVE COMPOUND AND USE THEREOF” (EAST CHINA UNIVERSITY OF SCIENCE AND TECHNOLOGY, priority 2023, published 2026).

The molecules below were run on ATCC25922 strain (Escherichia coli) (assay: Checkerboard antibacterial synergistic activity test with polymyxin E (FIC)). Details: combined with polymyxin E.
Type: cell-based
Parameters: key: FIC≤0.5 synergy; 0.5–1 additive; 1–2 indifferent; ≥2 antagonism
Outline: (§1)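 Polymyxin E was diluted in MH broth to 16–0.015 μg/ml and the test compound to 256–4 μg/ml (two-fold series, pre-mixing concentrations), combined checkerboard-style in 96-well plates with bacterial suspension and blank controls, and incubated at 37° C. for 16 h. FIC ≤0.5 was scored synergistic, >0.5 to <1 additive, 1–2 indifferent, ≥2 antagonistic.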

SMILES | Synergistic activity (FIC value) ATCC25922
N#Cc1cc(Oc2ccccc2I)cc(-c2coc(N=C3NCCCN3)n2)c1 [Compound I-157] | 0.14
CC(C)(C)c1ccc(-c2c[nH]c(N=C(N)N)n2)cc1 [Compound I-12] | 0.5
NC(N)=Nc1nc(-c2ccc(C(F)(F)F)cc2)cs1 [Compound I-43] | 0.5
NC(N)=Nc1nc(-c2cccc(Cl)c2)cs1 [Compound I-37] | 1.25
Ic1ccc(-c2csc(N=C3NCCCN3)n2)cc1 [Compound I-181] | 0.52
Oc1c(I)cc(-c2nc(N=C3NCCCN3)sc2Cl)cc1I [Compound I-183] | 1.25
Cc1ccc(NC(=O)Nc2cccc(-c3c[nH]c(N=C4NCCCN4)n3)c2)c(C)c1 [Compound I-199] | 0.51
C[S+]([O-])c1cccc(-c2csc(N=C(N)N)n2)c1 (stereo not shown) [Compound I-27] | 1.25

These molecules were tested on ATCC19606 strain (Acinetobacter baumannii) in the same assay as above. Details: combined with polymyxin E.
Type: cell-based
Parameters: key: FIC≤0.5 synergy; 0.5–1 additive; 1–2 indifferent; ≥2 antagonism
Outline: as §1

SMILES | Synergistic activity (FIC value) ATCC19606
N#Cc1cc(Oc2ccccc2I)cc(-c2coc(N=C3NCCCN3)n2)c1 [Compound I-157] | 0.31
CC(C)(C)c1ccc(-c2c[nH]c(N=C(N)N)n2)cc1 [Compound I-12] | 0.28
NC(N)=Nc1nc(-c2ccc(C(F)(F)F)cc2)cs1 [Compound I-43] | 1.25
NC(N)=Nc1nc(-c2cccc(Cl)c2)cs1 [Compound I-37] | 0.25
Ic1ccc(-c2csc(N=C3NCCCN3)n2)cc1 [Compound I-181] | 0.13
Oc1c(I)cc(-c2nc(N=C3NCCCN3)sc2Cl)cc1I [Compound I-183] | 0.25
Cc1ccc(NC(=O)Nc2cccc(-c3c[nH]c(N=C4NCCCN4)n3)c2)c(C)c1 [Compound I-199] | 0.16
C[S+]([O-])c1cccc(-c2csc(N=C(N)N)n2)c1 (stereo not shown) [Compound I-27] | 0.51

What follows are molecules tested on ATCC9027 strain (Pseudomonas aeruginosa) in the same assay as above. Details: combined with polymyxin E.
Type: cell-based
Parameters: key: FIC≤0.5 synergy; 0.5–1 additive; 1–2 indifferent; ≥2 antagonism
Outline: as §1

SMILES | Synergistic activity (FIC value) ATCC9027
N#Cc1cc(Oc2ccccc2I)cc(-c2coc(N=C3NCCCN3)n2)c1 [Compound I-157] | 0.06
CC(C)(C)c1ccc(-c2c[nH]c(N=C(N)N)n2)cc1 [Compound I-12] | 0.63
NC(N)=Nc1nc(-c2ccc(C(F)(F)F)cc2)cs1 [Compound I-43] | 0.63
NC(N)=Nc1nc(-c2cccc(Cl)c2)cs1 [Compound I-37] | 0.52
Ic1ccc(-c2csc(N=C3NCCCN3)n2)cc1 [Compound I-181] | 1.25
Oc1c(I)cc(-c2nc(N=C3NCCCN3)sc2Cl)cc1I [Compound I-183] | 0.52
Cc1ccc(NC(=O)Nc2cccc(-c3c[nH]c(N=C4NCCCN4)n3)c2)c(C)c1 [Compound I-199] | 0.75
C[S+]([O-])c1cccc(-c2csc(N=C(N)N)n2)c1 (stereo not shown) [Compound I-27] | 1.25

Each molecule was assayed on ATCC13883 strain (Klebsiella pneumoniae) in the same assay as above. Details: combined with polymyxin E.
Type: cell-based
Parameters: key: FIC≤0.5 synergy; 0.5–1 additive; 1–2 indifferent; ≥2 antagonism
Outline: as §1

SMILES | Synergistic activity (FIC value) ATCC13883
N#Cc1cc(Oc2ccccc2I)cc(-c2coc(N=C3NCCCN3)n2)c1 [Compound I-157] | 0.09
CC(C)(C)c1ccc(-c2c[nH]c(N=C(N)N)n2)cc1 [Compound I-12] | 0.25
NC(N)=Nc1nc(-c2ccc(C(F)(F)F)cc2)cs1 [Compound I-43] | 1.25
NC(N)=Nc1nc(-c2cccc(Cl)c2)cs1 [Compound I-37] | 1.25
Ic1ccc(-c2csc(N=C3NCCCN3)n2)cc1 [Compound I-181] | 0.19
Oc1c(I)cc(-c2nc(N=C3NCCCN3)sc2Cl)cc1I [Compound I-183] | 1.25
Cc1ccc(NC(=O)Nc2cccc(-c3c[nH]c(N=C4NCCCN4)n3)c2)c(C)c1 [Compound I-199] | 0.51
C[S+]([O-])c1cccc(-c2csc(N=C(N)N)n2)c1 (stereo not shown) [Compound I-27] | 1.25

What follows are molecules tested on ATCC25922 strain (Escherichia coli) (assay: Broth microdilution, antibacterial activity of the compound used alone). Details: not given.
Type: cell-based
Text: (§2) The broth microdilution method was used to test the antibacterial effects of the compounds of the present invention against various Gram-negative bacterial strains when used alone.

SMILES | Antibacterial activity of the compound of Formula I, ATCC25922 [µg/mL]
N#Cc1cc(Oc2ccccc2I)cc(-c2coc(N=C3NCCCN3)n2)c1 [Compound I-157] | 256
CC(C)(C)c1ccc(-c2c[nH]c(N=C(N)N)n2)cc1 [Compound I-12] | 256
NC(N)=Nc1nc(-c2ccc(C(F)(F)F)cc2)cs1 [Compound I-43] | 256
NC(N)=Nc1nc(-c2cccc(Cl)c2)cs1 [Compound I-37] | 256
Ic1ccc(-c2csc(N=C3NCCCN3)n2)cc1 [Compound I-181] | 256
Oc1c(I)cc(-c2nc(N=C3NCCCN3)sc2Cl)cc1I [Compound I-183] | 256
Cc1ccc(NC(=O)Nc2cccc(-c3c[nH]c(N=C4NCCCN4)n3)c2)c(C)c1 [Compound I-199] | 256
C[S+]([O-])c1cccc(-c2csc(N=C(N)N)n2)c1 (stereo not shown) [Compound I-27] | 256

The molecules below were run on ATCC19606 strain (Acinetobacter baumannii) in the same assay as above. Details: not given.
Type: cell-based
Text: as §2

SMILES | Antibacterial activity of the compound of Formula I, ATCC19606 [µg/mL]
N#Cc1cc(Oc2ccccc2I)cc(-c2coc(N=C3NCCCN3)n2)c1 [Compound I-157] | 256
CC(C)(C)c1ccc(-c2c[nH]c(N=C(N)N)n2)cc1 [Compound I-12] | 256
NC(N)=Nc1nc(-c2ccc(C(F)(F)F)cc2)cs1 [Compound I-43] | 256
NC(N)=Nc1nc(-c2cccc(Cl)c2)cs1 [Compound I-37] | 256
Ic1ccc(-c2csc(N=C3NCCCN3)n2)cc1 [Compound I-181] | 256
Oc1c(I)cc(-c2nc(N=C3NCCCN3)sc2Cl)cc1I [Compound I-183] | 256
Cc1ccc(NC(=O)Nc2cccc(-c3c[nH]c(N=C4NCCCN4)n3)c2)c(C)c1 [Compound I-199] | 256
C[S+]([O-])c1cccc(-c2csc(N=C(N)N)n2)c1 (stereo not shown) [Compound I-27] | 256

These molecules were tested on ATCC9027 strain (Pseudomonas aeruginosa) in the same assay as above. Details: not given.
Type: cell-based
Text: as §2

SMILES | Antibacterial activity of the compound of Formula I, ATCC9027 [µg/mL]
N#Cc1cc(Oc2ccccc2I)cc(-c2coc(N=C3NCCCN3)n2)c1 [Compound I-157] | 256
CC(C)(C)c1ccc(-c2c[nH]c(N=C(N)N)n2)cc1 [Compound I-12] | 256
NC(N)=Nc1nc(-c2ccc(C(F)(F)F)cc2)cs1 [Compound I-43] | 256
NC(N)=Nc1nc(-c2cccc(Cl)c2)cs1 [Compound I-37] | 256
Ic1ccc(-c2csc(N=C3NCCCN3)n2)cc1 [Compound I-181] | 256
Oc1c(I)cc(-c2nc(N=C3NCCCN3)sc2Cl)cc1I [Compound I-183] | 256
Cc1ccc(NC(=O)Nc2cccc(-c3c[nH]c(N=C4NCCCN4)n3)c2)c(C)c1 [Compound I-199] | 256
C[S+]([O-])c1cccc(-c2csc(N=C(N)N)n2)c1 (stereo not shown) [Compound I-27] | 256

The molecules below were run on ATCC13883 strain (Klebsiella pneumoniae) in the same assay as above. Details: not given.
Type: cell-based
Text: as §2

SMILES | Antibacterial activity of the compound of Formula I, ATCC13883 [µg/mL]
N#Cc1cc(Oc2ccccc2I)cc(-c2coc(N=C3NCCCN3)n2)c1 [Compound I-157] | 256
CC(C)(C)c1ccc(-c2c[nH]c(N=C(N)N)n2)cc1 [Compound I-12] | 256
NC(N)=Nc1nc(-c2ccc(C(F)(F)F)cc2)cs1 [Compound I-43] | 256
NC(N)=Nc1nc(-c2cccc(Cl)c2)cs1 [Compound I-37] | 256
Ic1ccc(-c2csc(N=C3NCCCN3)n2)cc1 [Compound I-181] | 256
Oc1c(I)cc(-c2nc(N=C3NCCCN3)sc2Cl)cc1I [Compound I-183] | 256
Cc1ccc(NC(=O)Nc2cccc(-c3c[nH]c(N=C4NCCCN4)n3)c2)c(C)c1 [Compound I-199] | 256
C[S+]([O-])c1cccc(-c2csc(N=C(N)N)n2)c1 (stereo not shown) [Compound I-27] | 256
